Experimental data as given in patent US10835493B2, “Platelet-like proteo-microparticles and method of using such in drug delivery” (Academia Sinica, priority 2015, dated 2020).

Key:
I/R injured hearts = assay: PCR of HO-1 and pro-inflammatory genes in I/R injured hearts; assay type: in vivo, mouse; details: i.v. at 72 hours of reperfusion
Excerpt: (§1) FIGS. 6A-6D show therapeutic analysis of PLP−CoPP in a murine model of myocardial I/R injury. […] Subsequent injections were made every 5 days until day 28, at which point the mice were sacrificed. Subsequently, the heart tissues of the mice were sectioned and stained with Masson's trichrome (FIG. 6B). NT; not treated, CoPP; free CoPP, Lipo+CoPP; liposome-encapsulated CoPP, PLP+CoPP; PLP-encapsulated CoPP. Scale bar; 1 mm for the whole section and 100 μm for the higher magnified images.
Total RNA was isolated from a whole heart using TRI Reagent (1 mL/whole heart). Subsequently, 1 μg of RNA was transcribed info cDNA using a random primer mixer (ProtoScript M-MuLV First Strand cDNA synthesis kit, New England BioLabs) and amplified during 35 cycles by PCR, utilizing specific primers (Table 1). The reactants were cycled at 95° C. for 1 min, 58° C. for 1 min, and 72° C. for 1.5 min to enable denaturation, annealing, and extension, respectively. PCR products were then separated on 1% (w/v) agarose gel at 60 V for 1 hour in TBE buffer (80 mM Tris base, 80 mM boric acid, and 2 mM EDTA, pH 8). The gels were stained with Health View Nucleic Acid Stain (Genomics, Taipei, Taiwan) for 30 minutes and then visualized under UV light.

[1] = system: murine model of non-reperfused MI; assay: Echocardiographic assessment of cardiac function in murine model of MI; assay type: in vivo, mouse; details: 28 days post MI
Description: FIGS. 7A-7D show echocardiographic assessments of cardiac function and blood chemistry analysis of a murine model of MI injury after PLP−CoPP treatments. […] Treatments were then given every 5 days until day 28, at which point the cardiac function of the mice was assessed by echocardiography (n=8) (FIG. 7B); LVEF, left ventricular ejection fraction; FS, fraction shortening; LVEDV, left ventricular end-diastolic volume; LVESV, left ventricular end-systolic volume; IVSd, interventricular septal thickness at diastole; IVSs, interventricular septal thickness at systole. The blood of the mice was analyzed for biomarkers to assess liver function (FIG. 7C), renal function (FIG. 7D), and cardiac function (FIG. 7E); AST, aspartate aminotransferase; ALT, alanine aminotransferase; TBIL, total bilirubin; BUN, blood urea nitrogen; CRE, creatinine; CKMB, creatine kinase MB, *, P<0.05, ***, P<0.001. […]
The cardiac function in murine models of both I/R and MI was assessed by using a 30-MHz probe (Vevo770; Visual Sonics, Toronto, ON, Canada), following the methods published in Chen et al. ((2015), Stem Cells Trans Med 4:269-275). […] The left ventricular end-diastolic diameter (LVEDD) and end-systolic diameter (LVESD) were measured perpendicular to the long axis of the ventricle at the location of the papillary muscle insertion site. […]

[2] = system: murine model of I/R injury; assay: Infarct area in murine model of myocardial I/R injury (histology); assay type: in vivo, mouse; details: 5 mg/Kg i.v. at 72 hours of reperfusion then every 5 days; vs I/R+saline
Excerpt: as §1
Surgery for myocardial ischemia-reperfusion (I/R) was performed according to the protocol published in Ojha et al. ((2008), Am J Physiol Heart Circ Physiol 294:H2435-H2443). Briefly, the mice were ventilated on room air-isoflurane at an appropriate rate and tidal volume. The heart was accessed via left thoracotomy, in which the left lung was retracted to allow entrance to the pericardium. Subsequently, the left atrium was elevated to expose the left anterior descending coronary artery (LAD), and was isolated using a 7-0 silk suture on a taper needle. The suture was tightened over a piece of polyethylene-10 tubing to provide for reversible ischemia via the occlusion of the coronary artery. Ischemia was allowed to continue for 45 minutes after occlusion. After 45 minutes, the suture was released to allow for reperfusion of the injured myocardium. […]

[3] = system: HO-1 expression in RAW264.7 cells; assay: CoPP-induced HO-1 expression in RAW264.7 cells (western blotting); assay type: cell-based, murine; details: 4 hours exposure then overnight
Description: (§2) FIGS. 10A-10C show in vitro analysis of CoPP-induced expression of HO-1. FIG. 10A is a schematic diagram showing the relationship between CoPP, HO-1 and bilirubin. […] The cells were then placed back in a 37° C. incubator overnight before subjecting to western blotting (FIG. 10B). FIG. 10C presents the specific activity of the induced HO-1 in every treated sample, in catalyzing heme into bilirubin (n=6). NT; not treated, CoPP; free CoPP, Lipo+CoPP; liposome-encapsulated CoPP, PLP+CoPP; PLP-encapsulated CoPP. *, P<0.05, ***, P<0.001.
(§3) Samples were separated on 4-12% SDS-polyacrylamide gels (BioRad, US). After transfer to PVDF membrane, primary and secondary antibodies were applied, and the signals were detected with ECL-plus reagent. Primary antibodies against human GPIIb (GTX113758), human CD42c (GTX113355) and β-actin (GTX109639) were purchased from GeneTex (US). The anti-human CD62P (sc-19672) were from Santa Cruz (US). The rabbit polyclonal anti-HO-1 antibodies were made in-house according to Lin et al. ((2013), Arterioscler Thromb Vase Biol 33:785-794).
(§4) The capability of PLP−CoPP to induce HO-1 expression was first investigated in SVECs, RAW264.7 cells and MΦ (FIG. 10B). […] In addition, the enzyme activity of HO-1 in each corresponded to the expression level of enzyme in each of the CoPP-treated samples.

murine model of MI = assay: Blood chemistry (serum) analysis in murine model of MI; assay type: in vivo, mouse; details: end of 28-day treatment
Description: FIGS. 7A-7D show echocardiographic assessments of cardiac function and blood chemistry analysis of a murine model of MI injury after PLP−CoPP treatments. […] Treatments were then given every 5 days until day 28, at which point the cardiac function of the mice was assessed by echocardiography (n=8) (FIG. 7B); LVEF, left ventricular ejection fraction; FS, fraction shortening; LVEDV, left ventricular end-diastolic volume; LVESV, left ventricular end-systolic volume; IVSd, interventricular septal thickness at diastole; IVSs, interventricular septal thickness at systole. The blood of the mice was analyzed for biomarkers to assess liver function (FIG. 7C), renal function (FIG. 7D), and cardiac function (FIG. 7E); AST, aspartate aminotransferase; ALT, alanine aminotransferase; TBIL, total bilirubin; BUN, blood urea nitrogen; CRE, creatinine; CKMB, creatine kinase MB, *, P<0.05, ***, P<0.001.
All blood tests were performed by independent staff at the Taiwan Mouse Clinic, Academia Sinica, Taiwan. Male, BALB/c mice, approximately 56 weeks old, were used for all analyses (n=5 per group).
Levels of aspartate transaminase (AST), alanine transaminase (ALT), and total bilirubin in the serum were the biomarkers used to evaluate the hepatotoxicity of CoPP (FIG. 7C). […] Similar results were also seen in the measured serum level of blood urine nitrogen (BUN) and creatinine (CRE), which are biomarkers for renal toxicity (FIG. 7D).

HO-1 expression in SVECs = assay: CoPP-induced HO-1 expression in SVECs (western blotting); assay type: cell-based, murine; details: 4 hours exposure then overnight, compared to β-actin
Description: as §2, §3, §4

SMILES: C=CC1=C(C)c2cc3[n-]c(cc4nc(cc5[n-]c(cc1n2)c(C)c5CCC(=O)[O-])C(CCC(=O)[O-])=C4C)c(C)c3C=C.[Co+2].[H+].[H+] [CoPP, cobalt protoporphyrin]
- pro-inflammatory genes TNFα, MCP-1, IL6 and IL1β in the hearts (I/R injured hearts): downregulated
- expression of the HO-1 gene (HMXO1) in the hearts (I/R injured hearts; vs saline and Lipo−CoPP): upregulated
- left ventricular ejection fraction (LVEF, %) ([1]; 5 mg/Kg i.v. from 3 days post-infarction every 5 days): No significant difference
- LVEDV and LVESV [1]: significantly better than the other treatment groups
- infarct area of the heart [2]: significant reduction
- HO-1 expression [3]: induced strong HO-1 expression
- serum ALT (murine model of MI): significantly higher level
- serum BUN and CRE (murine model of MI): significantly higher than the other treatment groups
- serum CKMB (murine model of MI): significantly lower CKMB levels
- HO-1 expression (HO-1 expression in SVECs): induction of some expression
